Source: patent publication US20040024024A1, “Aromatic sulfone hydroxamates and their use as protease inhibitors” (priority 2001, published 2004)

Experiments:
Experiment in all cases: In vitro MMP inhibition, IC50 determination (fluorogenic substrate I)
Assay type in all cases: biochemical
[1] = target: T1, Human recombinant MMP-1 (Homo sapiens, UniProt P03956)
T1 construct: made in house; host or cells: MMP-1-transfected HT-1080 cells (spent media)
T1 sequence (P03956 100-469): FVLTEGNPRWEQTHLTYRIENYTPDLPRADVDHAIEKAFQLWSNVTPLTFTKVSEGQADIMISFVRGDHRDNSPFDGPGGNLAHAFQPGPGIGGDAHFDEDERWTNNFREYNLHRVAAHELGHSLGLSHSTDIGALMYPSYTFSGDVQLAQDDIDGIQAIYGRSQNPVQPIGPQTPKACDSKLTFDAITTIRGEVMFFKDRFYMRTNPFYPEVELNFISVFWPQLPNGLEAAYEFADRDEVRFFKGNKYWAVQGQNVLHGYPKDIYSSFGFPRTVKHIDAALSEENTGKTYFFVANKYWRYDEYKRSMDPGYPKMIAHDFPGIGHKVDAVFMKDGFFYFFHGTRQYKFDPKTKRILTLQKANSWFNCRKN
Protocol: (§1) Several hydroxamates and salts thereof were analyzed in in vitro assays to determine their ability to inhibit the MMP cleavage of peptide substrates. Inhibition (Ki) and IC50 constants were calculated from the assayed hydroxamate-MMP interactions.
(§2) Human recombinant MMP-1, MMP-2, MMP-9, MMP-13, and MMP-14 were used in this assay. All enzymes were prepared in Assignee's laboratories following usual laboratory procedures. Protocols for the preparation and use of these enzymes are available in the scientific literature. See, e.g., Enzyme Nomenclature (Academic Press, San Diego, Calif., 1992) (and the citations therein). See also, Frije et al., J. Biol. Chem., 26(24), 16766-73 (1994).
The MMP-1 proenzyme was purified from the spent media of MMP-1-transfected HT-1080 cells provided by Dr. Harold Welgus of Washington University (St. Louis, Mo.). The protein was purified on a zinc chelating column.
(§3) All MMPs were activated using 4-aminophenylmercuric acetate (“APMA”, Sigma Chemical, St. Louis, Mo.) or trypsin. MMP-9 also was activated using human recombinant MMP-3 (purified in Assignee's laboratory following standard cloning and purification techniques).
(§4) Two fluorogenic, methoxycoumarin-containing polypeptide substrates were used in the MMP inhibition assays:
(§5) MCA-ProLeuGlyLeuDpaAlaArgNH2 (I)
(§6) Here, “Dpa” is 3-(2,4-dinitrophenyl)-L-2,3-diaminopropionyl group, and “MCA” is 7-methoxycoumarin-4-yl acetyl. Substrate (I) was purchased from Baychem (Redwood City, Calif.), and substrate II was prepared Assignee's laboratory. Substrate I was used in the IC50 determination assays, while substrate II was used in the Ki determination assays. In the absence of MMP inhibitory activity, either substrate is cleaved at the Gly-Leu peptide bond. This cleavage separates the highly fluorogenic peptide from the 2,4-dinitrophenyl quencher, thus resulting in increase of fluorescent intensity.
(§7) The stock solutions of the assayed hydroxamates (or salts thereof) were prepared in 1% dimethyl sulfoxide (DMSO). These stock solutions were diluted in Buffer A (100 mM Tris-HCl, 100 mM NaCl, 10 mM CaCl2, 0.05% polyoxyethylene 23 lauryl ether, pH 7.5) to obtain solutions with different hydroxamate concentrations, i.e., assay solutions with different concentrations of the assayed MMP inhibitory compound. The experiment controls contained the same amount of Buffer A/DMSO as the assayed sample, but contained no hydroxamate (or salt thereof).
(§8) The assays from which the IC50 determinations were made were performed as follows. The MMPs were activated with either trypsin or APMA (4-aminophenylmercuric acetate, Sigma Chemical, St. Louis, Mo.). The assayed hydroxamate samples were, incubated in Microfluorrm White Plates (Dynatech, Chantilly, VA) and analyzed on a Perkin Elmer L550 plate reader (Norwalk, Conn.). The excitation wavelength was 328 nm, and the emission wavelength—415 nm. All samples (assayed hydroxamates and controls) were incubated in separate plates at room temperature in the presence of 4 μM of MMP substrate (I). As stated in the previous paragraph, samples containing varying concentrations of the same assayed hydroxamate were prepared. Inhibition was measured as a reduction in fluorescent intensity as a function of MMP inhibitor concentration.

[2] = target: T2, Human recombinant MMP-2 (Homo sapiens, UniProt P08253)
T2 construct: made in house; host or cells: MMP-2-transfected p2AHT2 cells
T2 sequence (P08253 110-660): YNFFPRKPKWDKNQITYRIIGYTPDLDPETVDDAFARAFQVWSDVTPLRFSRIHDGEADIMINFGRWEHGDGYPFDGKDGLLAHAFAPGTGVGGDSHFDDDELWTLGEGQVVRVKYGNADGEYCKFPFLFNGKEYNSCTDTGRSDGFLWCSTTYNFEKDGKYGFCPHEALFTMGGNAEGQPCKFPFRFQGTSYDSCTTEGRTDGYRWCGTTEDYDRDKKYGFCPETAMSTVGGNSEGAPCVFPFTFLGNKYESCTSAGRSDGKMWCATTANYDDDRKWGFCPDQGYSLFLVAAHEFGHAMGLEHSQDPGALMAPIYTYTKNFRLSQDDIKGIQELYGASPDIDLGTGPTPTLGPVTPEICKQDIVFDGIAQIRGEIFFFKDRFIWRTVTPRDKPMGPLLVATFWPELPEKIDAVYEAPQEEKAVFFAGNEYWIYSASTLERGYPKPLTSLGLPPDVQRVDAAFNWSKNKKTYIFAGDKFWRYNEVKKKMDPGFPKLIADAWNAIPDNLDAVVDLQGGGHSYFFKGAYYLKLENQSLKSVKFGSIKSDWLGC
Summary of the method: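 IC50 was derived from the concentration-dependent fall in fluorescence (ex 328, em 415 nm) on Gly-Leu cleavage of 4 μM MCA/Dpa-quenched substrate I. Assays ran at room temperature in pH 7.5 Tris/NaCl/CaCl2/Brij buffer with MMP-2 activated by trypsin or APMA; inhibitors were diluted from 1% DMSO stocks.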

[3] = target: T3, Human recombinant MMP-9 (Homo sapiens, UniProt P14780)
T3 construct: made in house; host or cells: MMP-9-transfected HT1080 cells (spent media)
T3 sequence (P14780 107-707 limits assumed): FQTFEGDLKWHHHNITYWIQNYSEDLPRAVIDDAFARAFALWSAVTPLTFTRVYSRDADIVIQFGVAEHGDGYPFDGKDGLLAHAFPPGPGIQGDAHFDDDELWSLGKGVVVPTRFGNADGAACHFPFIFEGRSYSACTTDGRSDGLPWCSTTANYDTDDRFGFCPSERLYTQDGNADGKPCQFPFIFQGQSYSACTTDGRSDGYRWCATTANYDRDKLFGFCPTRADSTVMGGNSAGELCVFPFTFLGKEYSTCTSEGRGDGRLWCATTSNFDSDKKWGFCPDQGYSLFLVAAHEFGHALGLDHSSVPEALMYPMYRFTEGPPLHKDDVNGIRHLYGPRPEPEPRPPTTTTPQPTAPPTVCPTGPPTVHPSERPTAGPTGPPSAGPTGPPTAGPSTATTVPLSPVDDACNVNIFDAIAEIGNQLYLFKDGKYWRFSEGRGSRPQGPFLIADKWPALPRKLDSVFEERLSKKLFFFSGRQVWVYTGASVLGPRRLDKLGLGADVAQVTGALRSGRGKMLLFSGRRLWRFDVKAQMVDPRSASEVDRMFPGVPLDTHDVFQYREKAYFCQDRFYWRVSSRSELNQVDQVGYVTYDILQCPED
Protocol: as §1, §2
The MMP-9 proenzyme was purified by gelatin Sepharose chromatography from spent media of MMP-9-transfected HT1080 cells provided by Dr. Howard Welgus of Washington University (St. Louis, Mo.).
as §3, §4, §5, §6, §7, §8

[4] = target: T4, Human recombinant MMP-13 (Homo sapiens, UniProt P45452)
T4 construct: made in house; host or cells: baculovirus / insect cells
Summary of the method: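 Fluorescence at 415 nm (excitation 328 nm) reports Gly-Leu cleavage of 4 μM quenched methoxycoumarin peptide substrate I. Human recombinant MMP-13, activated by trypsin or APMA, was incubated at room temperature with varied inhibitor concentrations in pH 7.5 Tris/NaCl/CaCl2 buffer; IC50 derived from reduced fluorescence.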

[5] = target: T5, Human recombinant MMP-14 (Homo sapiens, UniProt P50281)
T5 construct: The catalytic domain enzyme was expressed in E. coli inclusion bodies, solubilized in urea; made in house
Protocol: as §1, §2
The MMP-14 full length cDNA was provided by Dr. Gregory Goldberg of Washington University (St. Louis, Mo.). The catalytic domain enzyme was expressed in E. coli inclusion bodies, solubilized in urea, purified on a preparative […] reverse phase HPLC column, and then refolded in the presence of zinc acetate and purified for use.
as §3, §4, §5, §6, §7, §8

[6] = value outside parentheses (Ki in parenthesis)

SMILES | IC50 ([1]; value outside parenthesis) [µM] | IC50 ([2]; value outside parenthesis) [µM] | IC50 ([3]; value outside parenthesis) [µM] | IC50 ([4]; value outside parenthesis) [µM] | IC50 ([5]; value outside parenthesis) [µM] | further results
O=C(NO)C1(S(=O)(=O)c2ccc(OCCOCc3ccccn3)cc2)CCOCC1 [Example 515] |  |  |  |  |  | IC50 ([1]; value outside parentheses): > 10 µM; IC50 ([2]; value outside parentheses): 0.0898 µM; IC50 ([3]; value outside parentheses): 0.154 µM; IC50 ([4]; value outside parentheses): 0.0242 µM; IC50 ([5]; value outside parentheses): > 10 µM
O=C(NCCSc1ccc(S(=O)(=O)C2(C(=O)NO)CCOCC2)cc1)c1nc2ccccc2o1 [Example 576] |  |  |  |  |  | IC50 ([1]; value outside parentheses): > 10 µM; IC50 ([2]; value outside parentheses): 0.233 µM; IC50 ([3]; value outside parentheses): 0.397 µM; IC50 ([4]; value outside parentheses): 0.0003 µM; IC50 ([5]; value outside parentheses): > 10 µM
CC(CCOc1ccc(S(=O)(=O)C2(C(=O)NO)CCOCC2)cc1)C(=O)c1cccs1 (stereo not shown) [Example 276] | 6.67 | 0.0174 | 0.196 | 0.0028 | 7.02 | 
NCc1ccc(OCCOc2ccc(S(=O)(=O)C3(C(=O)NO)CCOCC3)cc2)cc1 [Example 650] |  |  |  |  |  | IC50 ([1]; value outside parentheses): 2.88 µM; IC50 ([2]; value outside parentheses): 0.0011 µM; IC50 ([3]; value outside parentheses): 0.00246 µM; IC50 ([4]; value outside parentheses): 0.00245 µM; IC50 ([5]; value outside parentheses): 2.39 µM
COCCN1CCC(C(=O)NO)(S(=O)(=O)c2ccc(OCCCSc3nc4ccccc4s3)cc2)CC1 [Example 615] |  |  |  |  |  | IC50 ([1]; value outside parentheses): > 10 µM; IC50 ([2]; value outside parentheses): 0.0011 µM; IC50 ([3]; value outside parentheses): 0.0036 µM; IC50 ([4]; value outside parentheses): 0.0004 µM; IC50 ([5]; value outside parentheses): 6.7 µM
COc1ccc(C(=O)CCCCOc2ccc(S(=O)(=O)C3(C(=O)NO)CCN(C4CC4)CC3)cc2)cc1 [Example 277] | > 10 | 0.0035 | 0.0415 | 0.0002 | > 10 | 
O=C(NO)C1(S(=O)(=O)c2ccc(OCCCc3nc(-c4cccc(Cl)c4Cl)no3)cc2)CCOCC1 [Example 213] | > 10 | 0.0548 | 2.2 | 0.0022 | > 10 | 
Cc1cc(C)nc(SCCCOc2ccc(S(=O)(=O)C3(C(=O)NO)CCOCC3)cc2)n1 [Example 286] | > 10 | 0.0749 | 1.13 | 0.004 | > 10 | 
O=C(NO)C1(S(=O)(=O)c2ccc(OCCCc3nc(-c4cc(F)ccc4F)no3)cc2)CCOCC1 [Example 211] | 9.65 | 0.0262 | 0.864 | 0.0004 | > 10 | 
Cc1ccc(-c2nnc(CCCOc3ccc(S(=O)(=O)C4(C(=O)NO)CCOCC4)cc3)o2)cc1 [Example 259] | 7.26 | 0.201 | 1.88 | 0.0007 | > 10 | 
Cc1oc(CCCOc2ccc(S(=O)(=O)C3(C(=O)NO)CCOCC3)cc2)nc1-c1ccccc1 [Example 317] |  |  |  |  |  | IC50 [1, 6]: > 10 µM; IC50 [2, 6]: 0.12 µM; IC50 [3, 6]: 0.244 µM; IC50 [4, 6]: 0.0031 µM; IC50 [5, 6]: > 10 µM
O=C(NCCCOc1ccc(S(=O)(=O)C2(C(=O)NO)CCOCC2)cc1)c1cnc2ccccc2c1 [Example 390] |  |  |  |  |  | IC50 [1, 6]: > 10 µM; IC50 [2, 6]: 0.907 µM; IC50 [3, 6]: > 10 µM; IC50 [4, 6]: 0.0027 µM; IC50 [5, 6]: > 10 µM
CCCc1ccc(-c2nc(CCCOc3ccc(S(=O)(=O)C4(C(=O)NO)CCN(CCOC)CC4)cc3)oc2C)cc1 [Example 206] | > 10 | 0.0926 | 0.0594 | 0.0158 | 3.11 | 
O=C(NO)C1(S(=O)(=O)c2ccc(OCCSc3nc4ccc(Cl)cc4o3)cc2)CCN(C2CC2)CC1 [Example 188] | > 10 | 0.0047 | 0.0482 | 0.0003 | 3.54 | 
COCCN1CCC(C(=O)NO)(S(=O)(=O)c2ccc(OCCCCC(=O)c3ccc(N(C)C)cc3)cc2)CC1 [Example 248] | > 10 | 0.0157 | 0.106 | 0.0002 | 1.7 | 
O=C(CCCOc1ccc(S(=O)(=O)C2(C(=O)NO)CCOCC2)cc1)c1cccc2ccccc12 [Example 352] |  |  |  |  |  | IC50 [1, 6]: > 10 µM; IC50 [2, 6]: 0.0336 µM; IC50 [3, 6]: 3.6 µM; IC50 [4, 6]: 0.002 µM; IC50 [5, 6]: 6.24 µM
Cc1ccc2c(c1)CCCN2CCCCCOc1ccc(S(=O)(=O)C2(C(=O)NO)CCOCC2)cc1 [Example 415] |  |  |  |  |  | IC50 [1, 6]: > 10 µM; IC50 [2, 6]: 0.051 µM; IC50 [3, 6]: 1.78 µM; IC50 [4, 6]: 0.015 µM; IC50 [5, 6]: > 10 µM
